Results from US4283398A, “Cephalosporins” (Mitsui Toatsu Chemicals, Inc., priority 1978, dated 1981).

Experiments:
[1] = blood level in rats after intramuscular administration; type: in vivo; conditions: rat, im, 20 mg/kg i.m., serum, read-out: Blood level after administration (average value ± standard deviation); for concentration at 0.25 h: 15 minutes; for concentration at 0.5 h: 30 minutes; for concentration at 1 h: 60 minutes; for concentration at 2 h: 120 minutes
Method: The compounds of this invention prepared in synthesis Examples 1 and 2 were each administered intramuscularly to rats, and the concentrations of the compounds in the blood were determined.
Each of the test compounds was intramuscularly injected into the femoral part of rats in a customary manner in a dose of 20 mg/kg for each rat. The blood was drawn by incising the cervical artery and vein at the end of 15 minutes, 30 minutes, 60 minutes, 120 minutes, and 240 minutes after the injection. The separated sera were used for the measurement of the blood level of the test compound. The concentrations of the test compounds in the sera were determined by a thin-layer cup method using Micrococcus luteus ATCC 9341 as an assay microorganism.

[2] = test system: Pseudomonas aeruginosa (NCTC 7244); assay: minimum growth inhibitory concentration (MIC) method; type: cell-based; conditions: NCTC7244, P. aeruginosa NCTC 7244, HIA medium, 37° C., 18 hours, sodium salts
Method: (§1) The antibacterial activities of the cephalosporins of this invention were measured using the sodium salts of the compounds obtained in Synthesis Examples 1 and 2. The procedure and the results are shown in Referential Example 1.
(§2) Carbenicillin sodium salt (CB-PC) and cephazoline sodium salt (CEZ) were used as controls.
(§3) The antibacterial activities of the test compounds against various Gram-positive and Gram-negative bacteria were determined in a customary manner by the minimum growth inhibitory concentration method (MIC method).
(§4) A commercially available heart infusion agar medium (to be abbreviated HIA medium) was used as an assay medium, and a commercially available trypto-soy bouillon medium (to be abbreviated TSB) was used as a medium for the growth of test bacterial strains.
(§5) The test compound was diluted with the melted HIA medium to 100 μg/ml as a maximum concentration, and then serially diluted double. The dilutions were poured into sterilized Petri dishes respectively and allowed to cool and solidify to prepare plates containing the test compound.
(§6) The test bacterial strain was cultivated at 37° C. for 18 to 24 hours in the TSB medium. The culture broth was diluted to 50 to 500 times with a freshly prepared TSB culture medium, and one platinum loopful of the dilution was inoculated in each of the plates containing the test compound. The plate was incubated at 37° C. for 18 hours, and the state of growth of the strain on the plate was observed, and the minimum growth inhibitory concentration (MIC) of the test compound was determined.

[3] = test system: Pseudomonas aeruginosa (395); assay: as above; type: cell-based; conditions: P. aeruginosa 395, HIA medium, 37° C., 18 hours, sodium salts
Method: as §1, §2, §3, §4, §5, §6

[4] = test system: Citrobacter freundii (F-34); assay: as above; type: cell-based; conditions: HIA medium, 37° C., 18 hours, sodium salts
Method: as §1, §2, §3, §4, §5, §6

Shigella flexneri (K-A) = assay: as above; type: cell-based; conditions: HIA medium, 37° C., 18 hours, sodium salts
Method: as §1, §2, §3, §4, §5, §6

[5] = test system: Pseudomonas aeruginosa (718); assay: as above; type: cell-based; conditions: P. aeruginosa 718, HIA medium, 37° C., 18 hours, sodium salts
Method: as §1, §2, §3, §4, §5, §6

Proteus morganii (C-39) = assay: as above; type: cell-based; conditions: Morganella morganii, HIA medium, 37° C., 18 hours, sodium salts
Method: as §1, §2, §3, §4, §5, §6

[6] = test system: Bacillus cereus (IAM 1792); assay: as above; type: cell-based; conditions: IAM1792, HIA medium, 37° C., 18 hours, sodium salts
Method: as §1, §2, §3, §4, §5, §6

[7] = test system: Serratia marcescens (S-33); assay: as above; type: cell-based; conditions: HIA medium, 37° C., 18 hours, sodium salts
Method: as §1, §2, §3, §4, §5, §6

[8] = test system: Klebsiella pneumoniae (Horino); assay: as above; type: cell-based; conditions: K. pneumoniae Horino, HIA medium, 37° C., 18 hours, sodium salts
Method: as §1, §2, §3, §4, §5, §6

[9] = test system: Klebsiella pneumonia (F-5089); assay: as above; type: cell-based; conditions: Klebsiella pneumoniae, HIA medium, 37° C., 18 hours, sodium salts
Method: as §1, §2, §3, §4, §5, §6

| SMILES | concentration at 0.25 h [1] | concentration at 0.5 h [1] | concentration at 1 h [1] | concentration at 2 h [1] | MIC [2] | MIC [3] | MIC [4] | MIC (Shigella flexneri (K-A)) | MIC [5] | MIC (Proteus morganii (C-39)) | MIC [6] | MIC [7] | MIC [8] | MIC [9] |
| --- | --- | --- | --- | --- | --- | --- | --- | --- | --- | --- | --- | --- | --- | --- |
| Cn1nnnc1SCC1=C(C(=O)O)N2C(=O)C(NC(=O)[C@H](NC(=O)c3cnc4c(c3O)C(=O)CCC4)c3ccccc3)C2SC1 (single isomer, unassigned) [Synthesis Example 1, 7-[D-(-)-α-(4-hydroxy-5-oxo-5,6,7,8-tetrahydroquinoline-3-carboxamide)phenylacetamido)-3-[[(1-methyl-1H-tetrazol-5-yl)thio]methyl]-Δ^3-cephem-4-carboxylic acid] | 12100 ± 3600 ng/mL | 10500 ± 2200 ng/mL | 9100 ± 3200 ng/mL | 4800 ± 2100 ng/mL | 12.5 µg/mL | 3.13 µg/mL | 0.78 µg/mL | 0.2 µg/mL | 12.5 µg/mL | 3.13 µg/mL | 25 µg/mL | 3.13 µg/mL | 1.56 µg/mL |  |
| Cn1nnnc1SCC1=C(C(=O)O)N2C(=O)C(NC(=O)[C@H](NC(=O)c3cnc4c(c3O)C(=O)CCC4)c3ccc(O)cc3)C2SC1 (single isomer, unassigned) [Synthesis Example 2, 7-[D-(-)-α-(4-hydroxy-5-oxo-5,6,7,8-tetrahydroquinoline-3-carboxamide)-α-(4-hydroxyphenyl)acetamido]-3-[[(1-methyl-1H-tetrazol-5-yl)thio]methyl]-Δ^3-cephem-4-carboxylic acid] | 20000 ± 1400 ng/mL | 14400 ± 2500 ng/mL | 8000 ± 4000 ng/mL | 3200 ± 1200 ng/mL | 6.25 µg/mL | 1.56 µg/mL | 0.39 µg/mL | 0.1 µg/mL | 12.5 µg/mL | 3.13 µg/mL | 12.5 µg/mL | 3.13 µg/mL | 0.78 µg/mL |  |
| CC1(C)S[C@@H]2[C@H](NC(=O)C(C(=O)O)c3ccccc3)C(=O)N2[C@H]1C(=O)O (stereo partly drawn) [CB-PC, disodium-α-carboxybenzyl penicillin, reference compound] |  |  |  |  | 100 µg/mL | 25 µg/mL | 3.13 µg/mL | 1.56 µg/mL | > 100 µg/mL | 6.25 µg/mL | 100 µg/mL | 6.25 µg/mL | 100 µg/mL | 50 µg/mL |
| Cc1nnc(SCC2=C(C(=O)O)N3C(=O)[C@@H](NC(=O)Cn4cnnn4)[C@H]3SC2)s1 [CEZ, sodium 7-[1-(1H)-tetrazoylacetamido]-3-[2-(5-methyl-1,3,4-thiadiazoyl)-thiomethyl]-Δ^3, cephem-4-carboxylate, reference compound] |  |  |  |  | > 100 µg/mL | > 100 µg/mL | 50 µg/mL | 1.56 µg/mL | > 100 µg/mL | > 100 µg/mL | 100 µg/mL | > 100 µg/mL | 3.13 µg/mL | 3.13 µg/mL |
